# Experimental data taken from US12495798B2, “Nicotinamide compound and herbicidal composition comprising compound” (KOREA RESEARCH INSTITUTE OF CHEMICAL TECHNOLOGY, priority 2019, dated 2025).
# Tests used:
# Type in all cases: in vivo
# fall panicum = test: Herbicidal activity test against upland field weeds (foliar treatment test); set-up: key to Foliar treatment herbicidal activity, Fall panicum: 0 (no control); 100 (complete control); conditions: 50 g ai/ha, scale 0-100; for pest or weed control at 50 g/ha: Panicum dichotomiflorum
# Method: (§1) Experimental Example 1: Herbicidal Activity Test Against Upland Field Weeds (Foliar Treatment Test) Foliar treatment was performed as follows: After filling a square plastic pot having a surface area of 350 cm^2 with horticultural soil, seeds (10˜15 grains) or rootstocks (2 pieces) of 5 kinds of grassy weeds of sorghum, barnyard grass, quack grass, crabgrass, fall panicum, and 5 kinds of broadleaf weeds of black nightshade, indian jointvetch, velvetleaf, cocklebur, bindweed, which had been stored in a low temperature (6° C.), were sown. After growing for a certain period in greenhouse conditions (average temperature 30±5° C., light/dark=14/10 hours), test compound solutions were made by diluting with a preparation solution (including 50% acetone, 0.1% Tween-20) so that the final treatment amount of the test compounds was 50 or 75 g a.i./ha. The prepared test compound solution was used for treating foliage by hand-spraying 14 mL per pot in a fume hood. After the treatment, it was managed under the same greenhouse conditions as above, and after 14 days (after 21 days if necessary), the external symptoms and efficacy were investigated according to the scale of 0 (no control) to 100 (complete control). The results of Table 7 were obtained by evaluating weed control value to the untreated control by conducting visual assessment.
# black nightshade = test: as above; set-up: key to Foliar treatment herbicidal activity, black nightshade: 0 (no control); 100 (complete control); conditions: 50 g ai/ha, scale 0-100; for pest or weed control at 50 g/ha: Solanum nigrum
# Method: as §1
# quack grass = test: as above; set-up: key to Foliar treatment herbicidal activity, quack grass: 0 (no control); 100 (complete control); conditions: 50 g ai/ha, scale 0-100
# Method: as §1
# barnyard grass = test: as above; set-up: key to Foliar treatment herbicidal activity, barnyard grass: 0 (no control); 100 (complete control); conditions: 50 g ai/ha, scale 0-100; for pest or weed control at 50 g/ha: Echinochloa crus-galli
# Method: as §1
# indian jointvetch = test: as above; conditions: 50 g ai/ha, scale 0-100
# Method: as §1
# sorghum = test: as above; set-up: key to Foliar treatment herbicidal activity, Sorghum: 0 (no control); 100 (complete control); conditions: 50 g ai/ha, scale 0-100; for plant injury at 50 g/ha: Sorghum
# Method: as §1
# cocklebur = test: as above; conditions: Xanthium strumarium, 50 g ai/ha, scale 0-100
# Method: as §1
# crabgrass = test: as above; set-up: key to Foliar treatment herbicidal activity, Crabgrass: 0 (no control); 100 (complete control); conditions: 50 g ai/ha, scale 0-100; for pest or weed control at 50 g/ha: Digitaria sanguinalis
# Method: as §1
# bindweed = test: as above; conditions: 50 g ai/ha, scale 0-100
# Method: as §1
# corn = test: Phytotoxicity test for upland field crops (foliar treatment test); set-up: key: 0 (no harm); 9 (complete withered)
# Method: (§2) Experimental Example 3: Phytotoxicity Test for Upland Field Crops (Foliar Treatment Test)
# (§3) Foliar treatment was performed for grown crops and weeds in a square plastic pot having a surface area of 50 cm^2 filled with horticultural soil. As a fertilizer per pot, 0.5 g of horticultural mixed fertilizer (N:P:K=17:21:17) was treated by mixing in the upper soil. Five kinds of crops such as rice, wheat, corn, soybean, and cotton were sown in each pot, and after growing for a certain period in greenhouse conditions (average temperature 30±5° C., light/dark=14/10 hours), test compound solutions were made by diluting with the diluent (33% acetone, 0.1% Tween-20) so that the final treatment amount of the test compounds was 19˜300 g a.i./ha. The prepared test compound solutions were treated using a spray booth (SB6-016) at a treatment amount of 100 ml per 1 m^2 of treatment area. The treated plants were managed under the same greenhouse conditions as above, and external symptoms and phytotoxicity were investigated 7 and 14 days after treatment (after 21 days if necessary). In the evaluation of the phytotoxicity for the crop, the grade of 0 (no harm) to 9 (complete withered) was used. The results of Table 9 were obtained by evaluating crop phytotoxicity value to the untreated control.
# wheat = test: as above; set-up: key: 0 (no harm); 9 (complete withered)
# Method: as §2, §3
# velvetleaf = test: Herbicidal activity test against upland field weeds (foliar treatment test); conditions: Abutilon theophrasti, 50 g ai/ha, scale 0-100, read-out: Foliar treatment herbicidal activity, velvet leaf
# Method: as §1
# [1] = 50 g ai/ha, Corn (7 days after treatment)
# [2] = 50 g ai/ha, Corn (14 days after treatment)
# [3] = 100 g ai/ha, Corn (7 days after treatment)
# [4] = 100 g ai/ha, Corn (14 days after treatment)
# [5] = 50 g ai/ha, Wheat (7 days after treatment)
# [6] = 50 g ai/ha, Wheat (14 days after treatment)
# [7] = 100 g ai/ha, Wheat (7 days after treatment)
# [8] = 100 g ai/ha, Wheat (14 days after treatment)
Structure (SMILES),pest or weed control at 50 g/ha (fall panicum) [%],"Foliar treatment herbicidal activity, quack grass (quack grass)",pest or weed control at 50 g/ha (barnyard grass) [%],pest or weed control at 50 g/ha (indian jointvetch) [%],"Foliar treatment herbicidal activity, Sorghum (sorghum)",pest or weed control at 50 g/ha (cocklebur) [%],pest or weed control at 50 g/ha (bindweed) [%],"Foliar treatment phytotoxicity, Corn (corn; [1])","Foliar treatment phytotoxicity, Corn (corn; [2])","Foliar treatment phytotoxicity, Corn (corn; [3])","Foliar treatment phytotoxicity, Corn (corn; [4])","Foliar treatment phytotoxicity, Wheat (wheat; [5])","Foliar treatment phytotoxicity, Wheat (wheat; [6])","Foliar treatment phytotoxicity, Wheat (wheat; [7])","Foliar treatment phytotoxicity, Wheat (wheat; [8])",pest or weed control at 50 g/ha (velvetleaf) [%],"Foliar treatment herbicidal activity, black nightshade (black nightshade)","Foliar treatment herbicidal activity, barnyard grass (barnyard grass)",pest or weed control at 50 g/ha (crabgrass) [%],plant injury at 50 g/ha (sorghum) [%],further results
"CCn1nnc(COCc2nc(C(F)(F)F)ccc2C(=O)Nc2nnnn2C)n1 [Compound No. 2-87, 2-(((2-ethyl-2H-tetrazol-5-yl)methoxy)methyl)-N-(1-methyl-1H-tetrazol-5-yl)-6-(trifluoromethyl)nicotinamide]",40,0,10,20,0,60,80,0,0,0,0,0,0,0,0,70,–,–,–,–,"pest or weed control at 50 g/ha (black nightshade): 98%; Foliar treatment herbicidal activity, Crabgrass (crabgrass): 0"
"CCn1nnc(COCc2nc(C(F)(F)F)ccc2C(=O)Nc2nnnn2CC)n1 [Compound No. 2-88, N-(1-ethyl-1H-tetrazol-5-yl)-2-(((2-ethyl-2H-tetrazol-5-yl)methoxy)methyl)-6-(trifluoromethyl)nicotinamide]",40,0,–,60,0,70,70,0,0,0,0,0,0,0,0,70,100,0,20,–,–
"CCCn1nnnc1NC(=O)c1ccc(C(F)(F)F)nc1COCc1nnn(CC)n1 [Compound No. 2-89, 2-(((2-ethyl-2H-tetrazol-5-yl)methoxy)methyl)-N-(1-propyl-1H-tetrazol-5-yl)-6-(trifluoromethyl)nicotinamide]",90,0,95,40,–,90,70,0,0,0,0,0,0,0,0,50,100,–,60,50,–
"Cn1nnnc1NC(=O)c1ccc(C(F)(F)F)nc1COCc1nnn(C(F)F)n1 [Compound No. 2-92, 2-(((2-(difluoromethyl)-2H-tetrazol-5-yl)methoxy)methyl)-N-(1-methyl-1H-tetrazol-5-yl)-6-(trifluoromethyl)nicotinamide]",40,0,–,70,0,70,70,–,–,–,–,–,–,–,–,80,100,0,20,–,–
"CN(Cc1nnn(C)n1)Cc1nc(C(F)(F)F)ccc1C(=O)Nc1nnnn1C [Compound No. 2-93, 2-((methyl((2-methyl-2H-tetrazol-5-yl)methyl)amino)methyl)-N-(1-methyl-1H-tetrazol-5-yl)-6-(trifluoromethyl)nicotinamide]",30,0,20,70,–,95,50,–,–,–,–,–,–,–,–,80,100,–,40,20,–
"CCN(Cc1nnn(C)n1)Cc1nc(C(F)(F)F)ccc1C(=O)Nc1nnnn1C [Compound No. 2-94, 2-((ethyl((2-methyl-2H-tetrazol-5-yl)methyl)amino)methyl)-N-(1-methyl-1H-tetrazol-5-yl)-6-(trifluoromethyl)nicotinamide]",–,0,–,60,0,60,30,–,–,–,–,–,–,–,–,60,100,0,–,–,"Foliar treatment herbicidal activity, Fall panicum (fall panicum): 0; Foliar treatment herbicidal activity, Crabgrass (crabgrass): 0"
"Cn1nnnc1NC(=O)c1ccc(C(F)(F)F)nc1COCc1nc(OCC(F)(F)F)n(C)n1 [Compound No. 2-130, N-(1-methyl-1H-tetrazol-5-yl)-2-(((1-methyl-5-(2,2,2-trifluoroethoxy)-1H-1,2,4-triazol-3-yl)methoxy)methyl)-6-(trifluoromethyl)nicotinamide]",70,0,95,60,–,60,70,–,–,–,–,–,–,–,–,50,–,–,90,30,pest or weed control at 50 g/ha (black nightshade): 98%
"CN(C)c1nc(COCc2nc(C(F)(F)F)ccc2C(=O)Nc2nnnn2C)nn1C [Compound No. 2-133, 2-(((5-(dimethylamino)-1-methyl-1H-1,2,4-triazol-3-yl)methoxy)methyl)-N-(1-methyl-1H-tetrazol-5-yl)-6-(trifluoromethyl)nicotinamide]",80,0,90,95,–,95,90,–,–,–,–,–,–,–,–,80,100,–,98,20,–
